Values joined by “and” are separate entries in the source; they are usually repeats but may differ in a detail not shown here. Equal entries are not always repeated. Where two headings read alike, the source gives them in different places.
Assays:
[1] = cited from earlier work
[2] = mouse, in vivo
[3] = in vivo
[4] = mouse, in vivo; cited from earlier work
[5] = for Pm^7.4: pH 7.4
[6] = pKa determination, potentiometric; settings: this work, 25°C, […] KCl (footnote b)
[7] = Charge class Q, dominant calculated charge state at pH 7.4; type: physicochemical
[8] = In situ brain perfusion, individual literature values; settings: from literature PS
[9] = PAMPA; for Pm^7.4: pH 7.4
[10] = In combo PAMPA-BBB model, calculated log Po in situ
[11] = physchem
[12] = ref [38], cited from earlier work
[13] = physchem; remark: listed apart in the source
[14] = PAMPA-BBB Type II; settings: 3 μL lipid-volume coated filters
[15] = PAMPA; for Pm^7.4: pH 7.4; remark: listed apart in the source
[16] = dominant calculated concentration fraction of the drug in a charge state
[17] = difference observed minus calculated, external set, no efflux inhibition
[18] = efflux inhibition column: not satbl

SMILES: CC(C)[C@H](NC(=O)[C@H](CCC(=O)O)NC(=O)[C@H](Cc1ccccc1)NC(=O)[C@@H](C)NC(=O)[C@@H](N)Cc1ccc(O)cc1)C(=O)N[C@H](C(=O)NCC(N)=O)C(C)C [Deltorphin II]
- PS ([1]; in vivo): 0.3 10^−4 mLg^−1s^−1
- log PS ([1]; in vivo): −4.56
- log Po^in situ (obs) [2]: −6.36
- log Po^in situ (obs) [3]: −6.56
- PS [4]: 0.4 10^−4 mLg^−1s^−1
- log PS [4]: −4.36
- log Po ([5]; PAMPA): −6.51
- Pm^7.4 ([5]; PAMPA): <0.01

SMILES: CNCCC(Oc1ccc(C(F)(F)F)cc1)c1ccccc1 (stereo not shown) [Fluoxetine]
- pKa [6]: 9.79

SMILES: CCCN1C[C@H](C)N([C@H](c2ccc(C(=O)N(CC)CC)cc2)c2cccc(OC)c2)C[C@H]1C [SNC121]
- Q (charge class) [7]: +
- log Po^in situ (obs) [2]: −2.96
- PS [4]: 363 10^−4 mLg^−1s^−1
- log PS [4]: −1.44
- log Po ([5]; PAMPA): −2.91
- Pm^7.4 ([5]; PAMPA): 201

SMILES: CC(C)(C)c1ccc(C(O)CCCN2CCC(C(O)(c3ccccc3)c3ccccc3)CC2)cc1 (stereo not shown) [Terfenadine]
- log Po^in situ (obs) ([8]; efflux inhibition CsA): −0.92
- Q (charge class) [7, 16]: +
- log PS ([1]; efflux inhibition CsA): −1.39
- log PABL [9]: −3.76
- log Po [9]: −0.54
- log Ppara [9]: −5.70
- obs–calc (log Po^in situ) [10, 17]: −0.9
- obs–calc (log Po^in situ) ([10]; efflux inhibition CsA): 0.0

SMILES: O=C1C[C@@H](c2ccc(O)cc2)Oc2cc(O)cc(O)c21 [Naringenin]
- log Po^in situ (obs) ([8]; efflux inhibition PSC833): −3.96
- Q (charge class) [7, 16]: 0
- PS ([1]; in vivo): 105 10^−4 mLg^−1s^−1
- log PS ([1]; in vivo): −1.98
- pKa ([11]; pKa): 10.4
- log PABL [9]: −4.00
- log Po [9]: −3.94
- log Ppara [9]: −6.93
- Pm^7.4 [9]: 33
- obs–calc (log Po^in situ) ([10]; efflux inhibition PSC833): 0.0

SMILES: Oc1ccc2c3c1O[C@H]1c4[nH]c5ccccc5c4C[C@@]4(O)[C@@H](C2)N(CC2CC2)CC[C@]314 [Naltrindole]
- Q (charge class) [7]: +
- log Po^in situ (obs) [2]: −3.03
- log Po [9]: −2.23
- log Ppara [9]: −6.20
- Pm^7.4 [9]: 659
- PS [4]: 104 10^−4 mLg^−1s^−1
- log PS [4]: −1.98

SMILES: CC(C(=O)O)c1ccc(-c2ccccc2)c(F)c1 (stereo not shown) [Flurbiprofen]
- log Po^in situ (obs) [8, 18]: −0.58
- Q (charge class) [7, 16]: −
- PS ([1]; in vivo): 158 10^−4 mLg^−1s^−1
- log PS ([1]; in vivo): −1.80
- pKa [12]: 4.18
- log PABL [9]: −2.84
- log Po [9]: −2.35
- log Ppara [9]: −6.99
- Pm^7.4 [9]: 3
- obs–calc (log Po^in situ) [10, 18]: 0.0

SMILES: CN(Cc1cnc2nc(N)nc(N)c2n1)c1ccc(C(=O)N[C@@H](CCC(=O)O)C(=O)O)cc1 [Methotrexate]
- Q (charge class) [7, 16]: ±
- pKa ([11]; pKa): 5.55
- log PABL ([5]; PAMPA): −4.73
- Pm^7.4 ([5]; PAMPA): 0.001

SMILES: O=C1CC2(CCCC2)CC(=O)N1CCCCN1CCN(c2ncccn2)CC1 [Buspirone]
- Q (charge class) [7, 16]: +
- pKa ([11]; pKa): 7.59

SMILES: O=C(O)CCCc1ccc(N(CCCl)CCCl)cc1 [Chlorambucil]
- Q (charge class) [7]: −
- PS ([1]; in vivo): 250 10^−4 mLg^−1s^−1
- log PS ([1]; in vivo): −1.60
- pKa ([6]; second pKa column): 4.28
- pKa [6]: 4.6
- log Po^in situ (obs) [3]: −0.80
- log PABL [9]: −2.87
- log Po [9]: −2.45
- log Ppara [9]: −7.16
- Pm^7.4 [9]: 6
- obs–calc (log Po^in situ) [10]: 0.3

SMILES: N[C@@H](Cc1ccc(N(CCCl)CCCl)cc1)C(=O)O [Melphalan]
- Q (charge class) [7]: ±
- PS ([1]; in vivo): 5 10^−4 mLg^−1s^−1
- log PS ([1]; in vivo): −3.28
- log Po^in situ (obs) [3]: −5.27
- log PABL [9]: −4.65
- log Po [9]: −7.51
- log Ppara [9]: −7.71
- Pm^7.4 [9]: 0.03
- obs–calc (log Po^in situ) [10]: 0.0

SMILES: N[C@H](Cc1ccc(F)cc1)C(=O)O [p-F-Phenylalanine(D)]
- PS ([1]; in vivo): 14 10^−4 mLg^−1s^−1
- log PS ([1]; in vivo): −2.85
- log Po^in situ (obs) [2]: −4.81
- log Po^in situ (obs) [3]: −4.84

SMILES: CC[C@]1(O)C[C@@H]2CN(CCc3c([nH]c4ccccc34)[C@@](C(=O)OC)(c3cc4c(cc3OC)N(C)[C@H]3[C@@](O)(C(=O)OC)[C@H](OC(C)=O)[C@]5(CC)C=CCN6CC[C@]43[C@@H]65)C2)C1 [Vinblastine]
- log Po^in situ (obs) ([8]; efflux inhibition GF120918): −4.94
- log Po^in situ (obs) ([8]; efflux inhibition PSC833): −5.06
- Q (charge class) [7, 16]: 0
- PS ([1]; efflux inhibition GF120918): 6 10^−4 mLg^−1s^−1
- log PS ([1]; efflux inhibition GF120918): −3.25
- PS ([1]; in vivo): 4 10^−4 mLg^−1s^−1
- log PS ([1]; in vivo): −3.37
- log PABL [9]: −3.25
- log Po [9]: −4.36
- log Ppara [9]: −5.54
- Pm^7.4 [9]: 32
- obs–calc (log Po^in situ) ([10]; efflux inhibition GF120918): 0.2
- obs–calc (log Po^in situ) ([10]; efflux inhibition PSC833): 0.1
- obs–calc (log Po^in situ) ([10]; efflux inhibition mdr1a(−/−)): 0.2 and 0.4

SMILES: CN1C[C@H](C(=O)N[C@]2(C)O[C@@]3(O)[C@@H]4CCCN4C(=O)[C@H](Cc4ccccc4)N3C2=O)C=C2c3cccc4[nH]cc(c34)C[C@H]21 [Ergotamine]
- pKa [13]: 9.49
- Q (charge class) [7]: 0
- PS ([1]; in vivo): 87 10^−4 mLg^−1s^−1
- log PS ([1]; in vivo): −2.06
- log Po^in situ (obs) [3]: −3.82
- log PABL [9]: −3.73
- log Po [9]: −2.50
- log Ppara [9]: −6.03
- Pm^7.4 [9]: 1823
- obs–calc (log Po^in situ) [10]: 0.1

SMILES: OCCOCCN1CCN(C(c2ccccc2)c2ccc(Cl)cc2)CC1 (stereo not shown) [Hydroxyzine]
- log Po^in situ (obs) ([8]; efflux inhibition CsA): −3.04
- Q (charge class) [7, 16]: 0
- PS ([1]; efflux inhibition CsA): 393 10^−4 mLg^−1s^−1
- log PS ([1]; efflux inhibition CsA): −1.41
- pKa [12]: 7.52
- pKa ([12]; second pKa column): 2.66
- log PABL [9]: −3.26
- log Po [9]: −3.72
- log Ppara [9]: −8
- Pm^7.4 [9]: 82
- obs–calc (log Po^in situ) ([10]; efflux inhibition CsA): 0.6
- obs–calc (log Po^in situ) ([10]; no efflux inhibition): 0.7

SMILES: COc1ccc(C(CN(C)C)C2(O)CCCCC2)cc1 (stereo not shown) [Venlafaxine]
- Q (charge class) [7]: +
- PS ([1]; in vivo): 104 10^−4 mLg^−1s^−1
- log PS ([1]; in vivo): −1.98
- log Po ([14]; PAMPA-BBB intrinsic permeability, Type II and I/II): −2.17
- log PABL ([14]; aqueous boundary layer permeability, Type II and I/II): −3.22
- Pm^7.4 ([14]; membrane permeability at pH 7.4, Type II and I/II): 32
- log Po^in situ (obs) [3]: −1.66
- obs–calc (log Po^in situ) [10]: 0.6

SMILES: Cc1cn([C@H]2C[C@H](N=[N+]=[N-])[C@@H](CO)O2)c(=O)[nH]c1=O [Zidovudine]
- Q (charge class) [7, 16]: 0
- pKa ([11]; pKa): 9.61
- log Po ([5]; PAMPA): −6.24

SMILES: CCC(=O)C(CC(C)N(C)C)(c1ccccc1)c1ccccc1 (stereo not shown) [Methadone]
- log Po [15]: −2.18

SMILES: N[C@@H](Cc1ccc(F)cc1)C(=O)O [p-F-Phenylalanine(L)]
- log Po^in situ (obs) [2]: −3.45
- PS [4]: 347 10^−4 mLg^−1s^−1
- log PS [4]: −1.46

SMILES: CC(C)n1c(/C=C/C(O)CC(O)CC(=O)O)c(-c2ccc(F)cc2)c2ccccc21 (stereo not shown) [Fluvastatin Acid]
- Q (charge class) [7, 16]: −
- obs–calc (log Po^in situ) ([10]; no efflux inhibition): 0.9
- log Po [15]: −3.56
- Pm^7.4 [15]: 0.2

SMILES: CCOC(=O)C1(c2ccccc2)CCN(C)CC1 [Meperidine]
- Q (charge class) [7]: +
- PS ([1]; in vivo): 549 10^−4 mLg^−1s^−1
- log PS ([1]; in vivo): −1.26
- log Po^in situ (obs) [2]: −2.08
- log Po^in situ (obs) [3]: −2.05
- obs–calc (log Po^in situ) [10]: −0.5
- log Po [15]: −1.68
- Pm^7.4 [15]: 1290
- PS [4]: 525 10^−4 mLg^−1s^−1
- log PS [4]: −1.28

SMILES: CN(C)C(=O)C(CCN1CCC(O)(c2ccc(Cl)cc2)CC1)(c1ccccc1)c1ccccc1 [Loperamide]
- Q (charge class) [7]: +
- log Po^in situ (obs) [2]: −2.52
- log PABL [9]: −3.19
- log Po [9]: −2.67
- log Ppara [9]: −12
- Pm^7.4 [9]: 102

SMILES: CC(=O)CC(c1ccccc1)c1c(O)c2ccccc2oc1=O (stereo not shown) [Warfarin]
- Q (charge class) [7, 16]: −
- pKa [11]: 4.75
- log PABL [9]: −3.04
- log Po [9]: −3.21
- log Ppara [9]: −8.00
- Pm^7.4 [9]: 1.4
- obs–calc (log Po^in situ) [10]: 0.4 and 0.5

SMILES: NC(Cc1ccc(F)cc1)C(=O)O (stereo not shown) [p-F-Phenylalanine]
- Q (charge class) [7]: ±
- log Po [15]: −6.13
- Pm^7.4 [15]: 0.7

SMILES: CC(C)c1nc(CN(C)C(=O)N[C@H](C(=O)N[C@@H](Cc2ccccc2)C[C@H](O)[C@H](Cc2ccccc2)NC(=O)OCc2cncs2)C(C)C)cs1 [Ritonavir]
- Q (charge class) [7, 16]: 0
- pKa ([11]; pKa): 2.42
- obs–calc (log Po^in situ) [10, 17]: −0.7 and −0.6
- obs–calc (log Po^in situ) ([10]; efflux inhibition mdr1a(−/−)): 0.0 and 0.2
- log Po ([5]; PAMPA): −4.24
- Pm^7.4 ([5]; PAMPA): 57

SMILES: CCC12CCN(CC3(O)CC3)C(Cc3ccc(O)cc31)C2(C)C (stereo not shown) [Bremazocine]
- Q (charge class) [7]: +
- PS ([1]; in vivo): 81 10^−4 mLg^−1s^−1
- log PS ([1]; in vivo): −2.09
- log Po^in situ (obs) [2]: −2.76
- log Po^in situ (obs) [3]: −2.96
- obs–calc (log Po^in situ) [10]: 0.4 and 0.2
- PS [4]: 129 10^−4 mLg^−1s^−1
- log PS [4]: −1.89
- log Po ([5]; PAMPA-BBB intrinsic permeability, Type I, collected under 1.5 μL conditions but scaled to the 3 μL level): −2.87
- log PABL ([5]; aqueous boundary layer permeability, Type I, 1.5 μL conditions): −3.00

SMILES: CN1CCCCC1CCN1c2ccccc2Sc2ccc([S+](C)[O-])cc21 (stereo not shown) [Mesoridazine]
- Q (charge class) [7, 16]: +
- pKa ([11]; pKa): 7.79
- log PABL [9]: −3.26
- log Po [9]: −4.33
- log Ppara [9]: −6.21
- Pm^7.4 [9]: 14
- obs–calc (log Po^in situ) [10, 17]: 0.8

Reference: publication PMC3034772 (Pharmaceutical research, 2010)
